Results on one compound are retold here after patent publication US20090023884A1, “METHOD FOR STORAGE AND/OR TRANSPORT OF BISPHENOLACETONE AND METHOD FOR PRODUCING AROMATIC POLYCARBONATE” (priority 2007, published 2009).

What all share (format): physicochemical
Data set [1] is described as follows: Solubility experiments: BPA dissolved in acetone or phenol in oil bath at set temperature. The note with it: weight ratio BPA to solvent 7.5/2.5. As to the method:
0.6 gram of bisphenolacetone (BPA) powder was placed in a 10 ml graduated tube with a thread seal. Prior to the experiment, BPA flakes were crushed to said powder to ensure uniform packing density at the bottom of the tube. Then 0.2 gram of a solvent was added to the BPA. The solvent was either acetone (present invention) or phenol (comparative). Thus, the weight ratio of BPA to solvent was 7.5/2.5. The tube was then immersed in an oil bath at a certain temperature, and mixed up to full equilibrium. The foregoing was repeated except that the temperature of the oil bath was set at different values. Table 1 mentions the amounts of BPA dissolved in either acetone or phenol at temperatures ranging from 30 to 110° C. The amount of BPA dissolved was calculated from the loss of BPA from the solids layer at the bottom of the tube.

The nature of data set [2]: Stability experiments: 4-isopropenyl phenol (IPP) formation in BPA solutions by GC-MS. Conditions: for IPP signal intensity where solvent is acetone / IPP signal intensity where solvent is phenol: BPA:solvent 6:4 by weight, GC-MS m/z=134 relative to untreated standard BPA sample. How it is done:
BPA and a solvent were mixed to produce solutions (containing no solids) having a weight ratio of BPA to solvent of 6:4. The solvent was either acetone (present invention) or phenol (comparative). Where the solvent was acetone the solution was obtained at a temperature of 35° C. and then kept at that temperature. However, in view of the above solubility experiments, where the solvent was phenol the solution could only be obtained at a temperature of 120° C. and was then kept at that temperature. The solutions were heated for a certain time period (3, 7 or 14 days) at either 35° C. (acetone) or 120° C. (phenol). At the end of each time period, the amount of 4-isopropenyl phenol (IPP) was determined by means of GC-MS. Table 2 mentions the intensity of the GC-MS signal at m/z=134, which signal is characteristic for IPP, relative to a standard BPA sample that had not been subjected to said temperature treatment.

A short description of data set [3]: Extended storage of acetone/bisphenolacetone liquid mixture at storage temperature range. Conditions: liquid mixture with acetone.

Turning to `CC(C)(c1ccc(O)cc1)c1ccc(O)cc1` [BPA, 2,2-bis(4-hydroxyphenyl)propane], the “Vol. % of BPA dissolved in acetone” value in data set [1] (30 °C) is listed as 61 Vol. %; in data set [1] (60 °C), 72 Vol. %; in data set [1] (75 °C) it was 72 Vol. %; in data set [1] (90 °C), 74 Vol. %; in data set [1] (110 °C), 74 Vol. %. In addition, the “Vol. % of BPA dissolved in phenol” value is recorded as 0 Vol. % in data set [1] (60 °C), 0 Vol. % in data set [1] (75 °C), 0 Vol. % in data set [1] (90 °C) and 61 Vol. % in data set [1] (110 °C). In addition, the figures for the “IPP signal intensity where solvent is acetone” value in data set [2] (3 days at 35 °C), in data set [2] (7 days at 35 °C) and in data set [2] (14 days at 35 °C) were 0.1, 0.0 and 0.0, respectively. The “IPP signal intensity where solvent is phenol” value in data set [2] (3 days at 120 °C) amounted to 14.8; in data set [2] (7 days at 120 °C) it was 22.3; in data set [2] (14 days at 120 °C), 35.0. Besides, in data set [2] (solution in acetone, storage at 35 °C), the “thermal degradation of BPA” value is given as “does not result in any substantial thermal degradation”. Also, the “thermal degradation of BPA into IPP” value in data set [2] (solvent phenol, solution kept at 120 °C) was “thermally degraded into IPP”. Further, the “bisphenolacetone and solution properties upon extended storage” value in data set [3] is “remain unchanged”.
